Read-outs that look alike come from different tables or passages of the source.
Tests used:
SUM159 cells = assay: Cell viability (total cell count, Hoechst stain) in SUM159 cells; format: cell-based; conditions: Homo sapiens, WT cells, 72 h, mean N = 3
Procedure: Human TNBC cell line SUM159 was a generous gift from Dr. Gary Johnson (the University of North Carolina at Chapel Hill). MDA‐MB‐231 (WT and CLPP‐KO) cells were provided by Dr. Stanley Lipkowitz (National Cancer Institute). MDA‐MB‐231 cells were cultured in RPMI‐1640 media (Gibco, 11875‐093) supplemented with 10% fetal bovine serum (FBS; VWR‐Seradigm, 97068‐085), and 1% antibiotic–antimycotic (anti/anti; ThermoFisher Scientific, 15240062). SUM159 cells were cultured in Dulbecco's modified Eagle's medium: Nutrient Mixture F‐12 (DMEM/F12; Gibco, 11330‐032) supplemented with 5% FBS, 5 μg/ml insulin (Gibco, 12585014), 1 μg/ml hydrocortisone, and 1% anti/anti. Cells were maintained at 5% CO2 and 37°C and periodically tested for mycoplasma.
(§1) Total cell counting assays were performed by seeding MDA‐MB‐231 cells (WT and ClpP‐KO; 4000 cells/well) or SUM159 (WT and ClpP‐KO; 1000 cells/well) in a 96‐well plate (Perkin Elmer, 6005050) and allowed to adhere overnight. The growth medium was then aspirated and replaced with 100 μl of growth medium supplemented with the drug at concentrations indicated in the figure or figure legends. Cells treated with vehicle control (0.1% DMSO, Sigma‐Aldrich D2650) were used as a negative control in all experiments, and cells were incubated with drug‐containing media for 24, 48, or 72 h as indicated in figure legends. Media was then aspirated and replaced with 100 μl Dulbecco's phosphate‐buffered saline (DPBS Gibco, 14190‐144) containing 1 μg/ml Hoechst stain (ThermoFischer Scientific, H3570) and allowed to incubate at 37°C for 30 min. The total cell number was then quantified using the Celigo Imaging Cytometer (Nexcelom).

[1] = tested on: MDA‐MB‐231 and SUM159 cells; assay: Immunoblotting for mitochondrial proteins; format: cell-based, human
Procedure: Cell lysates were clarified and immunoblotted as described earlier.[45] Membranes were incubated with primary antibodies (Appendix S1) diluted 1:1000 in 1% fish gelatin (Sigma‐Aldrich, G7041)/TBST overnight at 4°C, removed, washed 3 × 5 min in TBST, and placed in their respective 2° antibodies (1:10 000 dilution in 5% milk/TBST) for 1 h. […] Acquired images were processed/quantified using Image Lab software (BioRad) or Image Studio Lite (LI‐COR).

MDA‐MB‐231 cells = assay: Cell viability (total cell count, Hoechst stain) in MDA‐MB‐231 cells; format: cell-based, human; conditions: for IC50: Homo sapiens, MDA-MB-231, 72 h
[2] = tested on: ClpP‐KO MDA‐MB‐231 and SUM159 cells; assay: Cell growth in ClpP‐KO cells; format: cell-based, human; conditions: concentrations as high as 1 μM, up to 72 h
From the text: sgRNA against human ClpP (Eurofins Genomics) was annealed and ligated into vector VDB783. This vector was transformed into DH5α cells and the presence of sgRNA was confirmed by colony PCR. Lentivirus was produced in HEK293T cells following transfection with plasmid and jetPRIME (PolyPlus) as previously described.[43] Clonal populations of SUM159 cells infected with dCas9‐KRAB lentivirus were clonally isolated to ensure dCas9‐KRAB expression. Isolated SUM159 cells were infected with ClpP sgRNA lentivirus followed by additional selection passage in growth media supplemented with […] puromycin.
as §1, with “Media was then aspirated and replaced with 100 μl Dulbecco's phosphate‐buffered saline (DPBS Gibco, 14190‐144) containing 1 μg/ml Hoechst stain (ThermoFischer Scientific, H3570) and allowed to incubate at 37°C for 30 min.” left out

[3] = 100 nM TR‐107, 150 nM TR‐57, or 10 μM ONC201

## N#Cc1cccc(CN2CCc3ncn(Cc4ccc(Cl)cc4)c(=O)c3C2)c1 [TR‐107]
SUM159 cells
  IC50: 12 nM
[1]; [3]
  TUFM and TFAM protein levels by 24 h: complete or near‐complete loss
  time at which TUFM and TFAM protein levels began to decline: ~ 6 h
[1]; MDA‐MB‐231 cells, 100 nM
  HSP60 levels: significantly reduced in a time‐dependent manner
MDA‐MB‐231 cells; WT cells, Hoechst stain, mean N = 3, read-out: IC50 (nM) MDA-MB-231
  IC50: 23 nM
MDA‐MB‐231 cells; media containing galactose, read-out: IC50 (nM) Galactose
  IC50: 9.8 nM
MDA‐MB‐231 cells; media containing glucose, read-out: IC50 (nM) Glucose
  IC50: 19 nM
MDA‐MB‐231 cells; galactose instead of glucose, MDA‐MB‐231, 72 h
  shift of growth inhibition dose–response (IC50) glucose to galactose: ~ 2 fold
[2]
  cell growth in ClpP‐KO cells: not inhibited
